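Five concentrations, 48 hours, 96-well plates. GI50 = concentration required for 50% inhibition of growth.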 Activity calls are given as the source filed them. No stated cut-off is given here; in the data, active = GI50 up to about 1.1 µM and inactive = higher.
What was measured:
Test in all cases: inhibition of tumour cell growth, NCI panel, 48 h
[1] = test system: 786-0
[2] = test system: A549
[3] = test system: ACHN
[4] = test system: CAKI-1
[5] = test system: DU-145
[6] = test system: EKVX
[7] = test system: Hs-578T
[8] = test system: LOX IMVI
[9] = test system: M14
[10] = test system: MCF7
[11] = test system: MDA-MB-231
[12] = test system: MDA-MB-435
[13] = test system: NCI-H226
[14] = test system: SF-295
[15] = test system: SK-MEL-2
[16] = test system: UACC-257
[17] = test system: HOP-62
[18] = test system: OVCAR-4
[19] = test system: SNB-75
[20] = test system: BT-549

Measured: GI50

COc1cc2c(cc1OCCCOS(C)(=O)=O)N=C[C@@H]1CCCN1C2=O
inactive: [1] > 100 µM | [2] > 100 µM | [3] > 100 µM | [4] > 100 µM | [5] > 100 µM | [6] > 100 µM | [7] > 100 µM | [8] > 100 µM | [9] > 100 µM | [10] > 100 µM | [11] > 100 µM | [12] > 100 µM | [13] > 100 µM | [14] > 100 µM | [15] > 100 µM | [16] > 100 µM

CCOC(=O)c1c(SC(=O)/C=C/c2ccccc2)n(-c2ccccc2)c(=S)n(-c2ccccc2)c1=O
inactive: [1] > 100 µM | [2] > 100 µM | [3] > 100 µM | [4] > 100 µM | [5] > 100 µM | [6] > 100 µM | [17] > 100 µM | [7] > 100 µM | [8] > 100 µM | [9] > 100 µM | [10] > 100 µM | [11] > 100 µM | [12] > 100 µM | [13] > 100 µM | [18] > 100 µM | [14] > 100 µM | [19] > 100 µM | [16] > 100 µM

BrCCCCCOc1ccc(-c2c3ccccc3c(-c3ccc(OCCCCCBr)cc3)c3ccccc23)cc1
inactive: [1] > 100 µM | [2] > 100 µM | [3] > 100 µM | [4] > 100 µM | [5] > 100 µM | [6] > 100 µM | [17] > 100 µM | [7] 35.7 µM | [9] > 100 µM | [10] > 100 µM | [11] > 100 µM | [12] > 100 µM | [13] > 100 µM | [18] > 100 µM | [14] > 100 µM | [15] > 100 µM | [19] 38.5 µM | [16] > 100 µM

COC1(OC)N=C(N)C2(C#N)C3(C(=O)N(C(C)C)N=C3C)C12C#N (stereo not given)
inactive: [1] > 100 µM | [2] > 100 µM | [3] > 100 µM | [20] > 100 µM | [4] > 100 µM | [5] > 100 µM | [6] > 100 µM | [17] > 100 µM | [9] > 100 µM | [10] > 100 µM | [11] > 100 µM | [12] > 100 µM | [13] > 100 µM | [18] > 100 µM | [14] > 100 µM | [15] > 100 µM | [19] > 100 µM | [16] > 100 µM

COC(=O)C1(C(=O)OC)CC(=O)c2c(OC(=O)c3cccc(OC)c3C#N)ccc(OC(=O)c3cccc(OC)c3C#N)c2C1
inactive: [1] > 100 µM | [2] > 100 µM | [3] > 100 µM | [4] > 100 µM | [5] > 100 µM | [6] > 100 µM | [17] > 100 µM | [7] > 100 µM | [8] > 100 µM | [9] > 100 µM | [10] > 100 µM | [11] > 100 µM | [12] > 100 µM | [13] > 100 µM | [18] > 100 µM | [14] > 100 µM | [19] > 100 µM | [16] > 100 µM

CCC(C)C(NC(=O)c1cccc2c(=O)c3ccccc3[nH]c12)C(=O)O (stereo not given)
inactive: [1] > 100 µM | [2] 98.9 µM | [3] 86.7 µM | [5] > 100 µM | [6] > 100 µM | [17] > 100 µM | [7] > 100 µM | [8] > 100 µM | [9] > 100 µM | [10] > 100 µM | [11] > 100 µM | [12] > 100 µM | [13] > 100 µM | [18] 43.8 µM | [14] 83.4 µM | [15] > 100 µM | [19] 78.7 µM

CCC1C(c2cccc(OC)c2O)c2cc3c(cc2OC1N1CCCC1)OCO3 (stereo not given)
inactive: [1] 16.1 µM | [2] 17.4 µM | [3] 15 µM | [5] > 10 µM | [6] 22.8 µM | [17] 18.4 µM | [7] 3.75 µM | [8] 23.3 µM | [9] 6.43 µM | [10] 22.2 µM | [12] 3.85 µM | [14] 16.8 µM | [15] 17.1 µM | [19] 17.7 µM | [16] 17.8 µM

OCCSCCCSCCO
inactive: [1] > 100 µM | [2] > 100 µM | [20] > 100 µM | [5] > 100 µM | [6] > 100 µM | [17] > 100 µM | [8] > 100 µM | [9] > 100 µM | [10] > 100 µM | [11] > 100 µM | [12] > 10 µM | [18] > 100 µM | [14] > 100 µM | [19] > 100 µM | [16] > 100 µM

C=C/C(C)=C\CC1[C@](C)(O)CC[C@H]2C(C)(C)C(=O)CC[C@]12C (stereo not given in full)
inactive: [1] > 100 µM | [2] 62.7 µM | [3] > 100 µM | [4] > 100 µM | [5] > 100 µM | [6] > 100 µM | [7] > 100 µM | [8] 93.8 µM | [9] 39.4 µM | [10] 60.4 µM | [11] > 100 µM | [12] 70.5 µM | [13] > 100 µM | [18] 54.3 µM | [14] 81.7 µM | [15] > 100 µM | [19] > 100 µM | [16] 64.4 µM

CCOC(=O)/C(C(=S)Nc1ccccc1)=C(/N)N1CCCC1
inactive: [1] > 100 µM | [2] > 100 µM | [3] > 100 µM | [4] > 100 µM | [5] > 100 µM | [6] > 100 µM | [17] > 100 µM | [7] 77.4 µM | [8] > 100 µM | [9] 72.6 µM | [10] 54.1 µM | [11] 29.7 µM | [12] 37.9 µM | [13] > 100 µM | [18] > 100 µM | [14] > 100 µM | [15] > 100 µM | [16] > 100 µM

O=[N+]([O-])c1cccc([N+](=O)[O-])c1Cl
inactive: [1] 26.4 µM | [2] 14.9 µM | [3] 14.7 µM | [4] 3.18 µM | [5] 2.86 µM | [6] 20.3 µM | [17] 23.5 µM | [7] 27 µM | [8] 1.35 µM | [9] 10.2 µM | [10] 4.24 µM | [11] 21.2 µM | [12] 17.9 µM | [13] 27 µM | [18] 22.8 µM | [14] 16.1 µM | [15] 21.8 µM | [19] 30.3 µM | [16] 11 µM
